Source: ChEMBL document CHEMBL1268979, “Discovery of highly potent and efficacious MC4R agonists with spiroindane N-Me-1,2,4-triazole privileged structures for the treatment of obesity” (Bioorg Med Chem Lett, 2010)
The source made the active and inactive calls. No cut-off for these calls is given here.

Key:
Mus musculus [1] = assay: Reduction in food intake in DIO mouse obesity model at 6 mg/kg, po after 18 hrs; type: functional
[2] = Volume of distribution in Sprague-Dawley rat at 1 mg/kg, iv and 4 mg/kg, po; type: ADME, organism-based; details: in vivo
Mus musculus [3] = assay: Reduction in food intake in wild type mouse at 20 mg/kg, po after 18 hrs; type: functional
Mus musculus [4] = assay: Reduction in body weight in DIO mouse obesity model at 3 mg/kg, po after 4 hrs; type: functional, organism-based; parameters: dose 3 mg/kg
Mus musculus [5] = assay: Reduction in body weight in DIO mouse obesity model at 20 mg/kg, po after 4 hrs; type: functional, organism-based; parameters: dose 20 mg/kg
[6] = Clearance in Sprague-Dawley rat at 1 mg/kg, iv and 4 mg/kg, po; type: ADME, organism-based; details: in vivo
Mus musculus [7] = assay: Reduction in food intake in wild type mouse at 20 mg/kg, po after 4 hrs; type: functional
Mus musculus [8] = assay: Reduction in food intake in DIO mouse obesity model at 3 mg/kg, po after 4 hrs; type: functional
Mus musculus [9] = assay: Reduction in food intake in DIO mouse obesity model at 1 mg/kg, po measured for 18 hrs; type: functional
Mus musculus [10] = assay: Reduction in food intake in DIO mouse obesity model at 3 mg/kg, po after 18 hrs; type: functional
Mus musculus [11] = assay: Reduction in food intake in DIO mouse obesity model at 10 mg/kg, po measured for 18 hrs; type: functional
Melanocortin receptor 4 [12] = target: T1, Melanocortin receptor 4 (Homo sapiens, UniProt P32245); assay: Agonist activity at human MC4 receptor assessed as receptor activation; type: functional
T1 sequence (P32245 whole entry): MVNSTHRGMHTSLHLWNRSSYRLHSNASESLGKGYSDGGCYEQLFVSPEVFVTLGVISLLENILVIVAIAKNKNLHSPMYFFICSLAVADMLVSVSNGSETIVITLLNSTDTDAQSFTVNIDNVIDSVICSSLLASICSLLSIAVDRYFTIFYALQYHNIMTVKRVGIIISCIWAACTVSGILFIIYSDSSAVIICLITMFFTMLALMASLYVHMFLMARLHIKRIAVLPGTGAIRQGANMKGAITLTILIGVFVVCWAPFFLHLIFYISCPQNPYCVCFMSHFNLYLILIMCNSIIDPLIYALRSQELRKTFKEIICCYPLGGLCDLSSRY

Homo sapiens = species: Homo sapiens; assay: Agonist activity at human MC1b receptor assessed as receptor activation; type: functional; parameters: concentration or dose not given beside the values
Mus musculus [13] = assay: Reduction in food intake in wild type mouse at 10 mg/kg, po after 4 hrs; type: functional
Mus musculus [14] = assay: Reduction in food intake in wild type mouse at 10 mg/kg, po after 18 hrs; type: functional
Mus musculus [15] = assay: Reduction in food intake in DIO mouse obesity model at 6 mg/kg, po after 4 hrs; type: functional
Melanocortin receptor 4 [16] = target: T1, Melanocortin receptor 4; assay: Inhibition of human MC4 receptor
Mus musculus [17] = assay: Reduction in food intake in DIO mouse obesity model at 3 mg/kg, po measured for 18 hrs; type: functional
[18] = Agonist activity at human MC1b receptor; type: functional
Mus musculus [19] = assay: Reduction in body weight in DIO mouse obesity model at 6 mg/kg, po after 4 hrs; type: functional, organism-based; parameters: dose 6 mg/kg
[20] = Half life in Sprague-Dawley rat at 1 mg/kg, iv and 4 mg/kg, po; type: ADME, organism-based; details: in vivo
Melanocortin receptor 4 [21] = target: T1, Melanocortin receptor 4; assay: Agonist activity at human MC4 receptor; type: functional
[22] = Oral bioavailability in Sprague-Dawley rat at 1 mg/kg, iv and 4 mg/kg, po; type: ADME, organism-based; details: in vivo
Mus musculus [23] = assay: Reduction in food intake in DIO mouse obesity model at 20 mg/kg, po after 4 hrs; type: functional
Mus musculus [24] = assay: Reduction in food intake in DIO mouse obesity model at 20 mg/kg, po after 18 hrs; type: functional
Mus musculus [25] = assay: Reduction in food intake in MC4R/3R knockout mouse at 10 mg/kg, po after 4 hrs; type: functional
Mus musculus [26] = assay: Reduction in food intake in MC4R/3R knockout mouse at 10 mg/kg, po after 18 hrs; type: functional

SMILES: Cc1cc2c(cc1Cl)C1(CCN(C(=O)[C@@H]3CC(N(C)C4CCOCC4)C[C@H]3c3ccc(F)cc3F)CC1)C[C@@H]2C(C)(C)c1ncnn1C (stereo not given in full)
- inhibition in vivo at 6 mg/kg (Mus musculus [1]): 28%
- Vd [2]: 9.7 L/kg
- inhibition in vivo at 20 mg/kg (Mus musculus [3]): 18%
- Activity (Mus musculus [4]): Active
- Activity (Mus musculus [5]): Active
- clearance [6]: 24 mL/min/kg
- inhibition in vivo at 20 mg/kg (Mus musculus [7]): 35%
- inhibition in vivo at 3 mg/kg (Mus musculus [8]): 31%
- inhibition in vivo at 1 mg/kg (Mus musculus [9]): 32%
- inhibition in vivo at 3 mg/kg (Mus musculus [10]): 15%
- inhibition in vivo at 10 mg/kg (Mus musculus [11]): 31%
- Activity (Melanocortin receptor 4 [12]): 99%
- Activity (Homo sapiens): 49%
- inhibition in vivo at 10 mg/kg (Mus musculus [13]): 46%
- inhibition in vivo at 10 mg/kg (Mus musculus [14]): 30%
- inhibition in vivo at 6 mg/kg (Mus musculus [15]): 56%
- IC50 (Melanocortin receptor 4 [16]): 0.43 nM
- inhibition in vivo at 3 mg/kg (Mus musculus [17]): 56%
- EC50 [18]: 250 nM
- Activity (Mus musculus [19]): Active
- half-life [20]: 5.1 h
- EC50 (Melanocortin receptor 4 [21]): 0.11 nM
- bioavailability [22]: 20%
- inhibition in vivo at 20 mg/kg (Mus musculus [23]): 39%
- inhibition in vivo at 20 mg/kg (Mus musculus [24]): 17%

SMILES: Cc1cc2c(cc1Cl)C1(CCN(C(=O)[C@@H]3CN(C4CCOCC4)C[C@H]3c3ccc(F)cc3F)CC1)C[C@@H]2C(C)(C)c1ncnn1C
- inhibition in vivo at 6 mg/kg (Mus musculus [1]): 18%
- Vd [2]: 10 L/kg
- inhibition in vivo at 20 mg/kg (Mus musculus [3]): 13%
- clearance [6]: 37 mL/min/kg
- inhibition in vivo at 20 mg/kg (Mus musculus [7]): 28%
- inhibition in vivo at 3 mg/kg (Mus musculus [8]): 19%
- Activity (Melanocortin receptor 4 [12]): 105%
- Activity (Homo sapiens): 54%
- inhibition in vivo at 10 mg/kg (Mus musculus [13]): 40%
- inhibition in vivo at 10 mg/kg (Mus musculus [14]): 22%
- inhibition in vivo at 6 mg/kg (Mus musculus [15]): 37%
- IC50 (Melanocortin receptor 4 [16]): 0.84 nM
- EC50 [18]: 708 nM
- half-life [20]: 3.4 h
- EC50 (Melanocortin receptor 4 [21]): 0.9 nM
- bioavailability [22]: 35%
- inhibition in vivo at 10 mg/kg (Mus musculus [25]): 20%
- inhibition in vivo at 20 mg/kg (Mus musculus [23]): 31%
- inhibition in vivo at 20 mg/kg (Mus musculus [24]): 11%

SMILES: Cc1cc2c(cc1Cl)C1(CCN(C(=O)[C@@H]3CN(C(C)(C)C)C[C@H]3c3ccc(F)cc3F)CC1)CC2C(C)(C)c1nnco1 (stereo in doubt; 5d1) [listing 1 of 2 here]
- Activity (Melanocortin receptor 4 [12]): 117%
- Activity (Homo sapiens): 10%

SMILES: Cc1cc2c(cc1Cl)C1(CCN(C(=O)[C@@H]3CN(C(C)(C)C)C[C@H]3c3ccc(F)cc3F)CC1)C[C@@H]2C(C)(C)c1ncnn1C
- inhibition in vivo at 6 mg/kg (Mus musculus [1]): 27%
- Vd [2]: 5 L/kg
- inhibition in vivo at 20 mg/kg (Mus musculus [3]): 17%
- clearance [6]: 6.7 mL/min/kg
- inhibition in vivo at 20 mg/kg (Mus musculus [7]): 24%
- inhibition in vivo at 10 mg/kg (Mus musculus [26]): 43%
- inhibition in vivo at 3 mg/kg (Mus musculus [8]): 29%
- inhibition in vivo at 3 mg/kg (Mus musculus [10]): 16%
- Activity (Melanocortin receptor 4 [12]): 106%
- Activity (Homo sapiens): 80%
- inhibition in vivo at 10 mg/kg (Mus musculus [13]): 47%
- inhibition in vivo at 10 mg/kg (Mus musculus [14]): 32%
- inhibition in vivo at 6 mg/kg (Mus musculus [15]): 51%
- IC50 (Melanocortin receptor 4 [16]): 0.41 nM
- EC50 [18]: 125 nM
- half-life [20]: 9.4 h
- EC50 (Melanocortin receptor 4 [21]): 0.23 nM
- bioavailability [22]: 26%
- inhibition in vivo at 10 mg/kg (Mus musculus [25]): 67%
- inhibition in vivo at 20 mg/kg (Mus musculus [23]): 38%
- inhibition in vivo at 20 mg/kg (Mus musculus [24]): 18%

SMILES: Cc1nnc(C(C)(C)[C@H]2CC3(CCN(C(=O)[C@@H]4CN(C(C)(C)C)C[C@H]4c4ccc(F)cc4F)CC3)c3cc(Cl)c(C)cc32)o1
- Activity (Melanocortin receptor 4 [12]): 97%
- Activity (Homo sapiens): 88%
- IC50 (Melanocortin receptor 4 [16]): 1.9 nM
- EC50 [18]: 1140 nM
- EC50 (Melanocortin receptor 4 [21]): 2.3 nM

SMILES: Cc1cc2c(cc1Cl)C1(CCN(C(=O)[C@@H]3CCN(C(C)(C)C)C[C@H]3c3ccc(F)cc3F)CC1)C[C@@H]2C(C)(C)c1ncnn1C
- inhibition in vivo at 6 mg/kg (Mus musculus [1]): 31%
- Vd [2]: 19 L/kg
- inhibition in vivo at 20 mg/kg (Mus musculus [3]): 17%
- clearance [6]: 22 mL/min/kg
- inhibition in vivo at 20 mg/kg (Mus musculus [7]): 24%
- inhibition in vivo at 10 mg/kg (Mus musculus [26]): 19%
- inhibition in vivo at 3 mg/kg (Mus musculus [8]): 29%
- inhibition in vivo at 3 mg/kg (Mus musculus [10]): 8%
- Activity (Melanocortin receptor 4 [12]): 96%
- Activity (Homo sapiens): 37%
- inhibition in vivo at 10 mg/kg (Mus musculus [13]): 46%
- inhibition in vivo at 10 mg/kg (Mus musculus [14]): 37%
- inhibition in vivo at 6 mg/kg (Mus musculus [15]): 47%
- IC50 (Melanocortin receptor 4 [16]): 1.7 nM
- EC50 [18]: 1050 nM
- half-life [20]: 11 h
- EC50 (Melanocortin receptor 4 [21]): 2.4 nM
- bioavailability [22]: 86%
- inhibition in vivo at 10 mg/kg (Mus musculus [25]): 40%
- inhibition in vivo at 20 mg/kg (Mus musculus [23]): 30%
- inhibition in vivo at 20 mg/kg (Mus musculus [24]): 15%

SMILES: Cc1cnc(C(C)(C)[C@H]2CC3(CCN(C(=O)[C@@H]4CN(C(C)(C)C)C[C@H]4c4ccc(F)cc4F)CC3)c3cc(Cl)c(C)cc32)o1
- Activity (Melanocortin receptor 4 [12]): 99%
- Activity (Homo sapiens): 57%
- IC50 (Melanocortin receptor 4 [16]): 9.7 nM
- EC50 [18]: 1650 nM
- EC50 (Melanocortin receptor 4 [21]): 48 nM

SMILES: Cc1cc2c(cc1Cl)C1(CCN(C(=O)[C@@H]3CN(C(C)(C)C)C[C@H]3c3ccc(F)cc3F)CC1)CC2C(C)(C)c1nnco1 (stereo in doubt; 5d2) [listing 1 of 2 here]
- IC50 (Melanocortin receptor 4 [16]): 1.3 nM
- EC50 [18]: 138 nM
- EC50 (Melanocortin receptor 4 [21]): 2.2 nM

SMILES: Cc1cc2c(cc1Cl)C1(CCN(C(=O)[C@@H]3CN(C(C)(C)C)C[C@H]3c3ccc(F)cc3F)CC1)CC2C(C)(C)c1nnco1 (stereo in doubt; 5d2) [listing 2 of 2 here]
- Activity (Melanocortin receptor 4 [12]): 92%
- Activity (Homo sapiens): 57%

SMILES: Cc1cc2c(cc1Cl)C1(CCN(C(=O)[C@@H]3CN(C(C)(C)C)C[C@H]3c3ccc(F)cc3F)CC1)CC2C(C)(C)c1nnco1 (stereo in doubt; 5d1) [listing 2 of 2 here]
- IC50 (Melanocortin receptor 4 [16]): 49 nM
- EC50 (Melanocortin receptor 4 [21]): 211 nM

SMILES: Cc1nc(C(C)(C)C2CC3(CCN(C(=O)[C@@H]4CN(C(C)(C)C)C[C@H]4c4ccc(F)cc4F)CC3)c3cc(Cl)c(C)cc32)no1 (stereo not given in full)
- Activity (Melanocortin receptor 4 [12]): 71%
- Activity (Homo sapiens): 46%
- IC50 (Melanocortin receptor 4 [16]): 5.7 nM
- EC50 [18]: 855 nM
- EC50 (Melanocortin receptor 4 [21]): 14 nM

SMILES: Cc1cc2c(cc1Cl)C1(CCN(C(=O)[C@@H]3CN(C(C)(C)C)C[C@H]3c3ccc(F)cc3F)CC1)CC2C(C)(C)c1cnn[nH]1 (stereo not given in full)
- Activity (Melanocortin receptor 4 [12]): 82%
- Activity (Homo sapiens): 31%
- IC50 (Melanocortin receptor 4 [16]): 16 nM
- EC50 [18]: 1040 nM
- EC50 (Melanocortin receptor 4 [21]): 4.2 nM
